Measured values from PubChem BioAssay AID1963967 (Molecular Pharmacology Branch, DTP, NCI, 2024).

System: 855422-203-R-J1-PDC spheroids with HUVEC/MSC, viability
Experiment: Anticancer human tumor 855422-203-R-J1-PDC patient-derived bladder carcinoma cell line growth inhibition [PI3K]
Conditions: for IC50: curve of first compound; for viability, T/C: stronger effect = lower value
In short: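 Targeted small molecules plus PI3K inhibitors, half-log dose series from Cmax (default top 10 microM), were applied to heterotypic spheroids of cancer cells with HUVEC and MSCs. Viability indicated growth inhibition.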

[1] = second compound 0.0316 µM, first compound 0.0316 µM
[2] = second compound 0.0316 µM, first compound 0.1 µM
[3] = second compound 0.0316 µM, first compound 0.316 µM
[4] = second compound 0.0316 µM, first compound 1 µM
[5] = second compound 0.0316 µM, first compound 3.16 µM
[6] = second compound 0.0316 µM, first compound 10 µM
[7] = second compound 0.1 µM, first compound 0.0316 µM
[8] = second compound 0.1 µM, first compound 0.1 µM
[9] = second compound 0.1 µM, first compound 0.316 µM
[10] = second compound 0.1 µM, first compound 1 µM
[11] = second compound 0.1 µM, first compound 3.16 µM
[12] = second compound 0.1 µM, first compound 10 µM
[13] = second compound 0.316 µM, first compound 0.0316 µM
[14] = second compound 0.316 µM, first compound 0.1 µM
[15] = second compound 0.316 µM, first compound 0.316 µM
[16] = second compound 0.316 µM, first compound 1 µM
[17] = second compound 0.316 µM, first compound 3.16 µM
[18] = second compound 0.316 µM, first compound 10 µM
[19] = second compound 1 µM, first compound 0.0316 µM
[20] = second compound 1 µM, first compound 0.1 µM
[21] = second compound 1 µM, first compound 0.316 µM
[22] = second compound 1 µM, first compound 1 µM
[23] = second compound 1 µM, first compound 3.16 µM
[24] = second compound 1 µM, first compound 10 µM
[25] = second compound 3.16 µM, first compound 0.0316 µM
[26] = second compound 3.16 µM, first compound 0.1 µM
[27] = second compound 3.16 µM, first compound 0.316 µM
[28] = second compound 3.16 µM, first compound 1 µM
[29] = second compound 3.16 µM, first compound 3.16 µM
[30] = second compound 3.16 µM, first compound 10 µM
[31] = second compound 10 µM, first compound 0.0316 µM
[32] = second compound 10 µM, first compound 0.1 µM
[33] = second compound 10 µM, first compound 0.316 µM
[34] = second compound 10 µM, first compound 1 µM
[35] = second compound 10 µM, first compound 3.16 µM
[36] = second compound 10 µM, first compound 10 µM
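Also: agents incubated with spheroids for one week before read-out.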
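For viability, T/C in this document: 100% = DMSO vehicle-treated control wells.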

With `C[C@@H](NC(=O)c1ncnc(N)c1Cl)c1ncc(C(=O)Nc2cc(C(F)(F)F)c(Cl)cn2)s1` + CC(Nc1ncnc2nc[nH]c12)c1cc2cccc(Cl)c2c(=O)n1-c1ccccc1 the IC50 (second compound 0.0316 µM) was greater than 10 µM, the IC50 (second compound 0.1 µM) was greater than 10 µM and the IC50 (second compound 0.316 µM) was greater than 10 µM. The IC50 (second compound 1 µM) was greater than 10 µM, the IC50 (second compound 3.16 µM) was greater than 10 µM and the IC50 (second compound 10 µM) was greater than 10 µM. It also gave a viability, T/C [1] of 120%, a viability, T/C [2] of 109% and a viability, T/C [3] of 109%. For the same compound, the viability, T/C [4] was 116%, the viability, T/C [5] was 131% and the viability, T/C [6] was 117%. For the same compound, the viability, T/C [7] was 112%, the viability, T/C [8] was 100% and the viability, T/C [9] was 111%. The viability, T/C [10] was 114%, the viability, T/C [11] was 116% and the viability, T/C [12] was 133%. It also gave a viability, T/C [13] of 100%, a viability, T/C [14] of 115% and a viability, T/C [15] of 105%. It also gave a viability, T/C [16] of 103%, a viability, T/C [17] of 136% and a viability, T/C [18] of 109%. For the same compound, the viability, T/C [19] was 85.2%, the viability, T/C [20] was 102% and the viability, T/C [21] was 101%. The viability, T/C [22] was 106%, the viability, T/C [23] was 120% and the viability, T/C [24] was 107%. For the same compound, the viability, T/C [25] was 94.8%, the viability, T/C [26] was 108% and the viability, T/C [27] was 94.3%. For the same compound, the viability, T/C [28] was 93.3%, the viability, T/C [29] was 106% and the viability, T/C [30] was 82.7%. The viability, T/C [31] was 82.7%, the viability, T/C [32] was 75.7% and the viability, T/C [33] was 93%. It also gave a viability, T/C [34] of 85.6%, a viability, T/C [35] of 69.6% and a viability, T/C [36] of 54.4%.

`Cn1nccc1Nc1nccc(-c2ccn(C(CO)c3ccc(Cl)c(F)c3)c(=O)c2)n1` (stereo not drawn) + Cc1nc(NC(=O)N2CCCC2C(N)=O)sc1-c1ccnc(C(C)(C)C(F)(F)F)c1 was tested, and the IC50 (second compound 0.0316 µM) was 9.48 µM, the IC50 (second compound 0.1 µM) was 8.22 µM and the IC50 (second compound 0.316 µM) was 6.99 µM. It also gave an IC50 (second compound 1 µM) of 4.27 µM, an IC50 (second compound 3.16 µM) of less than 0.0316 µM and an IC50 (second compound 10 µM) of less than 0.0316 µM. It also gave a viability, T/C [1] of 106%, a viability, T/C [2] of 95.9% and a viability, T/C [3] of 103%. It also gave a viability, T/C [4] of 89%, a viability, T/C [5] of 86.4% and a viability, T/C [6] of 47.5%. For the same compound, the viability, T/C [7] was 99.3%, the viability, T/C [8] was 93.3% and the viability, T/C [9] was 94.8%. The viability, T/C [10] was 85.9%, the viability, T/C [11] was 85% and the viability, T/C [12] was 43.2%. It also gave a viability, T/C [13] of 96%, a viability, T/C [14] of 89.3% and a viability, T/C [15] of 96.4%. It also gave a viability, T/C [16] of 92.2%, a viability, T/C [17] of 87.9% and a viability, T/C [18] of 32.8%. For the same compound, the viability, T/C [19] was 70.1%, the viability, T/C [20] was 70.1% and the viability, T/C [21] was 63.4%. For the same compound, the viability, T/C [22] was 67.5%, the viability, T/C [23] was 61.5% and the viability, T/C [24] was 17.9%. It also gave a viability, T/C [25] of 42.3%, a viability, T/C [26] of 39.6% and a viability, T/C [27] of 40.7%. It also gave a viability, T/C [28] of 35.2%, a viability, T/C [29] of 26.9% and a viability, T/C [30] of 10.1%. The viability, T/C [31] was 24.6%, the viability, T/C [32] was 21.6% and the viability, T/C [33] was 19.4%. It also gave a viability, T/C [34] of 14.4%, a viability, T/C [35] of 8.05% and a viability, T/C [36] of 4.78%.

`Cn1cnc2c(F)c(Nc3ccc(Br)cc3Cl)c(C(=O)NOCCO)cc21` + CC(Nc1ncnc2nc[nH]c12)c1cc2cccc(Cl)c2c(=O)n1-c1ccccc1 showed an IC50 (second compound 0.0316 µM) greater than 3 µM, an IC50 (second compound 0.1 µM) greater than 3 µM and an IC50 (second compound 0.316 µM) of 2.38 µM. It also gave an IC50 (second compound 1 µM) of 2.17 µM, an IC50 (second compound 3.16 µM) of 1.65 µM and an IC50 (second compound 10 µM) of 0.529 µM. It also gave a viability, T/C (second compound 0.0316 µM, first compound 0.00949 µM) of 116%, a viability, T/C (second compound 0.0316 µM, first compound 0.03 µM) of 90.7% and a viability, T/C (second compound 0.0316 µM, first compound 0.0949 µM) of 114%. It also gave a viability, T/C (second compound 0.0316 µM, first compound 0.3 µM) of 87.9%, a viability, T/C (second compound 0.0316 µM, first compound 0.949 µM) of 78.6% and a viability, T/C (second compound 0.0316 µM, first compound 3 µM) of 50.4%. It also gave a viability, T/C (second compound 0.1 µM, first compound 0.00949 µM) of 109%, a viability, T/C (second compound 0.1 µM, first compound 0.03 µM) of 97% and a viability, T/C (second compound 0.1 µM, first compound 0.0949 µM) of 104%. The viability, T/C (second compound 0.1 µM, first compound 0.3 µM) was 93.8%, the viability, T/C (second compound 0.1 µM, first compound 0.949 µM) was 90.5% and the viability, T/C (second compound 0.1 µM, first compound 3 µM) was 50.1%. For the same compound, the viability, T/C (second compound 0.316 µM, first compound 0.00949 µM) was 91.2%, the viability, T/C (second compound 0.316 µM, first compound 0.03 µM) was 100% and the viability, T/C (second compound 0.316 µM, first compound 0.0949 µM) was 101%. The viability, T/C (second compound 0.316 µM, first compound 0.3 µM) was 103%, the viability, T/C (second compound 0.316 µM, first compound 0.949 µM) was 80.2% and the viability, T/C (second compound 0.316 µM, first compound 3 µM) was 42.4%. For the same compound, the viability, T/C (second compound 1 µM, first compound 0.00949 µM) was 86.9%, the viability, T/C (second compound 1 µM, first compound 0.03 µM) was 96.3% and the viability, T/C (second compound 1 µM, first compound 0.0949 µM) was 103%. The viability, T/C (second compound 1 µM, first compound 0.3 µM) was 88.1%, the viability, T/C (second compound 1 µM, first compound 0.949 µM) was 79% and the viability, T/C (second compound 1 µM, first compound 3 µM) was 38.7%. For the same compound, the viability, T/C (second compound 3.16 µM, first compound 0.00949 µM) was 97%, the viability, T/C (second compound 3.16 µM, first compound 0.03 µM) was 96.5% and the viability, T/C (second compound 3.16 µM, first compound 0.0949 µM) was 100%. It also gave a viability, T/C (second compound 3.16 µM, first compound 0.3 µM) of 87.3%, a viability, T/C (second compound 3.16 µM, first compound 0.949 µM) of 67.3% and a viability, T/C (second compound 3.16 µM, first compound 3 µM) of 31.8%. The viability, T/C (second compound 10 µM, first compound 0.00949 µM) was 85.9%, the viability, T/C (second compound 10 µM, first compound 0.03 µM) was 74.1% and the viability, T/C (second compound 10 µM, first compound 0.0949 µM) was 70.9%. The viability, T/C (second compound 10 µM, first compound 0.3 µM) was 58.6%, the viability, T/C (second compound 10 µM, first compound 0.949 µM) was 41.6% and the viability, T/C (second compound 10 µM, first compound 3 µM) was 21.4%.

In the case of `CCN1CCN(Cc2ccc(Nc3ncc(F)c(-c4cc(F)c5nc(C)n(C(C)C)c5c4)n3)nc2)CC1` + CC(Nc1ncnc2nc[nH]c12)c1cc2cccc(Cl)c2c(=O)n1-c1ccccc1, the IC50 (second compound 0.0316 µM) is reported as greater than 1 µM, the IC50 (second compound 0.1 µM) is reported as greater than 1 µM and the IC50 (second compound 0.316 µM) is reported as greater than 1 µM. The IC50 (second compound 1 µM) was 0.885 µM, the IC50 (second compound 3.16 µM) was 0.497 µM and the IC50 (second compound 10 µM) was 0.063 µM. The viability, T/C (second compound 0.0316 µM, first compound 0.00316 µM) was 113%, the viability, T/C (second compound 0.0316 µM, first compound 0.01 µM) was 93.7% and the viability, T/C [1] was 108%. For the same compound, the viability, T/C [2] was 88.6%, the viability, T/C [3] was 76.5% and the viability, T/C [4] was 62.2%. It also gave a viability, T/C (second compound 0.1 µM, first compound 0.00316 µM) of 108%, a viability, T/C (second compound 0.1 µM, first compound 0.01 µM) of 97.8% and a viability, T/C [7] of 108%. For the same compound, the viability, T/C [8] was 86.5%, the viability, T/C [9] was 83.1% and the viability, T/C [10] was 62%. The viability, T/C (second compound 0.316 µM, first compound 0.00316 µM) was 95.2%, the viability, T/C (second compound 0.316 µM, first compound 0.01 µM) was 112% and the viability, T/C [13] was 109%. For the same compound, the viability, T/C [14] was 94.4%, the viability, T/C [15] was 68.2% and the viability, T/C [16] was 53.7%. The viability, T/C (second compound 1 µM, first compound 0.00316 µM) was 97.5%, the viability, T/C (second compound 1 µM, first compound 0.01 µM) was 104% and the viability, T/C [19] was 105%. For the same compound, the viability, T/C [20] was 83.1%, the viability, T/C [21] was 69% and the viability, T/C [22] was 47.3%. It also gave a viability, T/C (second compound 3.16 µM, first compound 0.00316 µM) of 98.2%, a viability, T/C (second compound 3.16 µM, first compound 0.01 µM) of 96.6% and a viability, T/C [25] of 89.8%. The viability, T/C [26] was 75.7%, the viability, T/C [27] was 51.5% and the viability, T/C [28] was 46.2%. For the same compound, the viability, T/C (second compound 10 µM, first compound 0.00316 µM) was 81.9%, the viability, T/C (second compound 10 µM, first compound 0.01 µM) was 83.2% and the viability, T/C [31] was 55.2%. The viability, T/C [32] was 44.9%, the viability, T/C [33] was 34.9% and the viability, T/C [34] was 25.9%.
